Source: US12435089B2, “3-oxadiazolyl substituted pyrazolo[1,5,a]pyrimidines for ROS1, NTRK, and ALK mediated diseases” (TYK MEDICINES, INC., priority 2019, dated 2025)
Read-outs that look alike come from different tables or passages of the source.

What was measured:
TRKA (G677C) = TRKA (G677C) (Homo sapiens, UniProt P04629, G667C); assay: Radio-tagged HotSpot kinase assay, TRKA (G677C); format: biochemical; details: 33P-ATP, 120 min, room temperature
Procedure: (§2) Inhibition of protein kinase activity by compounds was carried out on the Radio-tagged HotSpot kinase experimental platform of Reaction Biology Corporation. Fresh reaction solution (20 mM HEPESpH 7.5, 10 mM MgCl2, 1 mM EGTA, 0.02% Brij35, 0.02 mg/ml BSA, 0.1 mM Na3VO4, 2 mM DTT, 1% DMSO) containing corresponding substrates was prepared, cofactor and kinase to be tested were added into the above solution and mixed gently. Echo550 pipetting system was used to add the test compound DMSO solution to each well (the blank control group was added with the corresponding volume of DMSO), then 33P-ATP (with a final specific activity of 0.01 μCi/μL) was added to start the reaction. The reaction solution was incubated at room temperature for 120 minutes.

ROS1 (G2032R) = ROS1 (G2032R) (Homo sapiens (Human), UniProt P08922, G2032R); assay: Radio-tagged HotSpot kinase assay, ROS1 (G2032R)
Procedure: as §2

TRKA = TRKA (Homo sapiens (Human), UniProt P04629); assay: Radio-tagged HotSpot kinase assay, TRKA;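 also: kinase activity measured through incorporation of 33P from labelled ATP into substrate, 120 min at room temperature, relative to a DMSO-only blank control, reported as inhibition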
Chain of TRKA (P04629 33-796): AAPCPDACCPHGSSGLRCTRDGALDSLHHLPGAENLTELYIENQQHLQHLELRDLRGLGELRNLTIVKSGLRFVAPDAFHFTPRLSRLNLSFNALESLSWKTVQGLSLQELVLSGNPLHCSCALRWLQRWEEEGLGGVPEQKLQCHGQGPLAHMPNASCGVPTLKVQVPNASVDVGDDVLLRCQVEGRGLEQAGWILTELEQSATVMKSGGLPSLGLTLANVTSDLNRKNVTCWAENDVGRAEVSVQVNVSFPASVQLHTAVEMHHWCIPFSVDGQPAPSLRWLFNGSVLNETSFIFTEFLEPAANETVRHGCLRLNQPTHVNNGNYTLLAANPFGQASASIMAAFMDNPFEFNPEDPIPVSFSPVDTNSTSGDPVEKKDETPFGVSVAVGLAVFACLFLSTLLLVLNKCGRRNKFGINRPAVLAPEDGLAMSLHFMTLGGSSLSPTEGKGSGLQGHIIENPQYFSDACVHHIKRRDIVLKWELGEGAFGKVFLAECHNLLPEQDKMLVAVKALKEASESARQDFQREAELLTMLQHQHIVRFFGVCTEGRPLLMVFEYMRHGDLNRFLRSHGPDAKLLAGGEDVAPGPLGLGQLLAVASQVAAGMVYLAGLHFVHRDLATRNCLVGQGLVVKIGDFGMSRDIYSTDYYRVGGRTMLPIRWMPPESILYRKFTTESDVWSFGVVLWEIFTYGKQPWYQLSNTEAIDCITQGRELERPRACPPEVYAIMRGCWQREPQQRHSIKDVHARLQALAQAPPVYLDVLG
Procedure: as §2

ROS1 = ROS1 (Homo sapiens (Human), UniProt P08922); assay: Radio-tagged HotSpot kinase assay, ROS1; details: read-out: ROS1 (IC50/nM); 33P-ATP, 120 min, room temperature
Procedure: as §2

TRKA (G595R) = TRKA (G595R) (Homo sapiens (Human), UniProt P04629, G595R); assay: Radio-tagged HotSpot kinase assay, TRKA (G595R)
Chain of TRKA (G595R) (P04629 33-796 G595R): as the sequence (P04629 33-796) above, with G563R counted along it
Procedure: as §2

TRKC = TRKC (Homo sapiens (Human), UniProt Q16288); assay: Radio-tagged HotSpot kinase assay, TRKC; format: biochemical; details: 33P-ATP, 120 min, room temperature
Chain of TRKC (Q16288 32-839): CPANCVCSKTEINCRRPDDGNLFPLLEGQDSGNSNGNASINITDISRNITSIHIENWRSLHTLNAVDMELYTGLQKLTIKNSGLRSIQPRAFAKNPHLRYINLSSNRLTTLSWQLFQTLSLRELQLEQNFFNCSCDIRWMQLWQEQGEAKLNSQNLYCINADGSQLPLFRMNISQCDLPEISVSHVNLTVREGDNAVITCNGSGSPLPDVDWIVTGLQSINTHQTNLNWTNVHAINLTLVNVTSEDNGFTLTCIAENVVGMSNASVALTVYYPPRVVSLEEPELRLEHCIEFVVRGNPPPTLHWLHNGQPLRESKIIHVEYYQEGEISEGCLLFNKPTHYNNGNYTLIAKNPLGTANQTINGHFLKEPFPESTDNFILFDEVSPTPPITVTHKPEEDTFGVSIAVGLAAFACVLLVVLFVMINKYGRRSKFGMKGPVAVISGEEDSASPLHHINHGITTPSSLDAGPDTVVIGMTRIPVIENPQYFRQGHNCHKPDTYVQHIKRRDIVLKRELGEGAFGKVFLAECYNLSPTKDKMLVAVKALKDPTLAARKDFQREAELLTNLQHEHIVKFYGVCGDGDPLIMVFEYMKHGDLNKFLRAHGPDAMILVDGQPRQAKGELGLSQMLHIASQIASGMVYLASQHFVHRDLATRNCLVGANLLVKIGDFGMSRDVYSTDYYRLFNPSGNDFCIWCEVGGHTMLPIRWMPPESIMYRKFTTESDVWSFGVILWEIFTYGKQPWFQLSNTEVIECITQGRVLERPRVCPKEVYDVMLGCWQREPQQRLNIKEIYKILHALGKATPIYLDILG
Procedure: as §2

TRKB = TRKB (Homo sapiens (Human), UniProt Q16620); assay: Radio-tagged HotSpot kinase assay, TRKB; format: biochemical; details: 33P-ATP, 120 min, room temperature
Chain of TRKB (Q16620 32-822): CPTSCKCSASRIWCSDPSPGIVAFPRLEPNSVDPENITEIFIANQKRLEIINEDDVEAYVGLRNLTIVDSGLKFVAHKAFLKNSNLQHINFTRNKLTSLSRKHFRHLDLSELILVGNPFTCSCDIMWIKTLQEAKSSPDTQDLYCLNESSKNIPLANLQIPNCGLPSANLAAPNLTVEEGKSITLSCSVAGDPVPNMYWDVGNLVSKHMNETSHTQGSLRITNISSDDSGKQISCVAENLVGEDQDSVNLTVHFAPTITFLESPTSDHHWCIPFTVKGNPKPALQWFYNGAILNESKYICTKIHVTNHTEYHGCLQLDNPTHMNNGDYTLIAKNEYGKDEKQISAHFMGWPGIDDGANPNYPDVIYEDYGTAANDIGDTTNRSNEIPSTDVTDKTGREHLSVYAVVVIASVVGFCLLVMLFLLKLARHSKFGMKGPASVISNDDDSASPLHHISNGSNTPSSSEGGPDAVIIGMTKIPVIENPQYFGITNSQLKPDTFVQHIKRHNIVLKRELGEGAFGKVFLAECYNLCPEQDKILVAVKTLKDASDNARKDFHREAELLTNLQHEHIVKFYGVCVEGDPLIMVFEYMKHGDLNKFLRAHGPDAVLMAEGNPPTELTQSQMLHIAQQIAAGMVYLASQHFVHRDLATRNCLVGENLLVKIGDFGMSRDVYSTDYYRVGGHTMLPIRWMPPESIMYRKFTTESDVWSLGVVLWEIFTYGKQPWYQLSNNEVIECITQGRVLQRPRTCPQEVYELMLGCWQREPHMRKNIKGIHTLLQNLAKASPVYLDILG
Procedure: as §2

ALK (G1202R) = ALK (G1202R) (Homo sapiens (Human), UniProt Q9UM73, G1202R); assay: Radio-tagged HotSpot kinase assay, ALK (G1202R); format: biochemical; details: 33P-ATP, 120 min, room temperature
Chain of ALK (G1202R) (Q9UM73 19-1620 G1202R): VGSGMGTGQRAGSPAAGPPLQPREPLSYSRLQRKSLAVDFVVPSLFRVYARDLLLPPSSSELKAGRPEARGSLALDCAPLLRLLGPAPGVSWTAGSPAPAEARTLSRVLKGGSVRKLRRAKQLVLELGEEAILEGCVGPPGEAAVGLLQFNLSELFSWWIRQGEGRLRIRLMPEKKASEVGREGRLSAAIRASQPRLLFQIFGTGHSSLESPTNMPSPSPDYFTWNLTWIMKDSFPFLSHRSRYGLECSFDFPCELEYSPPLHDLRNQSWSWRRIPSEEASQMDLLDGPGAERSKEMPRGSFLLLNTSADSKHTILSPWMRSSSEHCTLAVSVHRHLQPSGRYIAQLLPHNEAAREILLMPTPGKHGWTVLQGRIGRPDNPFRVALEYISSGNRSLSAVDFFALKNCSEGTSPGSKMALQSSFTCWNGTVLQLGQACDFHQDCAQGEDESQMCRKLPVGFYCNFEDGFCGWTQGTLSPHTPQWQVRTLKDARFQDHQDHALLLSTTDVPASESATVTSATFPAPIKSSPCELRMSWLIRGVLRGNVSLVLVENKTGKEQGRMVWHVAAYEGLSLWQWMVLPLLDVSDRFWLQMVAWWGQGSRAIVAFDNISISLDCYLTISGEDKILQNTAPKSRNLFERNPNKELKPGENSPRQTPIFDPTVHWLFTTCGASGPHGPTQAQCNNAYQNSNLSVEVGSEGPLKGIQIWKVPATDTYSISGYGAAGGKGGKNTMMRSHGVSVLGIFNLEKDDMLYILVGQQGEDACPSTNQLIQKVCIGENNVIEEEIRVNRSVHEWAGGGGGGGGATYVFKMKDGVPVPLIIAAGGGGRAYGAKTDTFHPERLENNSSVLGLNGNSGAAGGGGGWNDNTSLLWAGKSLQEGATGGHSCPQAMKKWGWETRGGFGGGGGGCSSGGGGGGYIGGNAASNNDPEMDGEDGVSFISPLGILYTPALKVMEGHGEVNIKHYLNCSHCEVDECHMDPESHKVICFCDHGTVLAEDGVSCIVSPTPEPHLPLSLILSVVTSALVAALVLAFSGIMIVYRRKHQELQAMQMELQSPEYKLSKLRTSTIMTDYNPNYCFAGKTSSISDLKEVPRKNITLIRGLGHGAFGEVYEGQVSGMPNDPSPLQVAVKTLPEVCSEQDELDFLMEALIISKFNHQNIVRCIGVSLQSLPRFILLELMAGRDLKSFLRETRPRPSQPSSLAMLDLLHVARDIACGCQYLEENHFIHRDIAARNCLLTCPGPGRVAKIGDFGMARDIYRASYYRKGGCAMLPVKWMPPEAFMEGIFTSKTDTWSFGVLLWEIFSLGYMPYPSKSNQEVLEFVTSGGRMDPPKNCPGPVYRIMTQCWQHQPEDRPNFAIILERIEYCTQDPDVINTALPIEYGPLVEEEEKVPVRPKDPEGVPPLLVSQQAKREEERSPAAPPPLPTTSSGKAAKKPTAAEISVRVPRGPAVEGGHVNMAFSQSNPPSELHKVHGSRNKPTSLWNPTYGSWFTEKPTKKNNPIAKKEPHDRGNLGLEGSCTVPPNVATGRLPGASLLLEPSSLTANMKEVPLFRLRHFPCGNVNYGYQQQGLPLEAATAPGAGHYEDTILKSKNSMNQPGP
Procedure: as §2

ALK = ALK (Homo sapiens (Human), UniProt Q9UM73); assay: Radio-tagged HotSpot kinase assay, ALK; format: biochemical; details: 33P-ATP, 120 min, room temperature
Chain of ALK (Q9UM73 19-1620): as the sequence (Q9UM73 19-1620 G1202R) above, with R1184G counted along it
Procedure: as §2

Ba/F3-CD74-ROS1-G2032R = assay: Inhibition of cell proliferation (CellTiter-Glo), Ba/F3-CD74-ROS1-G2032R; format: cell-based; details: 72 hours;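 also: Ba/F3 cell line expressing the CD74-ROS1 fusion with G2032R mutation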
Procedure: (§1) The experiment of inhibiting cell proliferation by compounds was carried out in Hefei Zhongkeprecedo Biomedical Technology Co., Ltd. The Ba/F3 engineered cell line stably transfected with different kinase genes was recovered with RPMI 1640 medium (Biological Industries, Israel)+10% fetal bovine serum (Biological Industries, Israel)+1% double antibody (Penicillin Streptomycin solution, Coring, USA) and cultivated two generations. The logarithmic growth phase cell suspension was taken, and 2000 cells/well were inoculated on 96-well white cell culture plate (Corning 3917, NY, USA) with a volume of 95 μL per well. 5 μL of 20×DMSO solution of the compound to be tested was added into the culture plate containing 95 μL of cell suspension. The blank control group was added with corresponding volume of DMSO, mixed well, and incubated in a 5% CO2 incubator at 37° C. for 72 hours. CellTiter-Glo was used to detect cell viability.

Ba/F3-LMNA-NTRK1-G595R = assay: Inhibition of cell proliferation (CellTiter-Glo), Ba/F3-LMNA-NTRK1-G595R; format: cell-based; details: 72 hours
Procedure: as §1

Ba/F3-LMNA-NTRK1 = assay: Inhibition of cell proliferation (CellTiter-Glo), Ba/F3-LMNA-NTRK1; format: cell-based; details: 72 hours
Procedure: as §1

Ba/F3-CD74-ROS1 = assay: Inhibition of cell proliferation (CellTiter-Glo), Ba/F3-CD74-ROS1; format: cell-based; details: 72 hours
Procedure: as §1

Ba/F3-TEL-ALK-G1202R = assay: Inhibition of cell proliferation (CellTiter-Glo), Ba/F3-TEL-ALK-G1202R; format: cell-based; details: 72 hours
Procedure: as §1

[1] = read-out: ROS1 (G2032R) (IC50/nM), 33P-ATP, 120 min, room temperature
[2] = read-out: TRKA (IC50/nM), 33P-ATP, 120 min, room temperature

Chain of TRKA (G677C) (P04629 33-796 G667C limits assumed): as the sequence (P04629 33-796) above, with G635C counted along it

| Compound | IC50 (TRKA (G677C)) [nM] | IC50 (ROS1 (G2032R)) [nM] | IC50 (TRKA) [nM] | IC50 (ROS1) [nM] | IC50 (TRKA (G595R)) [nM] | IC50 (TRKC) [nM] | IC50 (TRKB) [nM] | IC50 (ALK (G1202R)) [nM] | IC50 (ALK) [nM] | IC50 (ROS1 (G2032R); [1]) [nM] | IC50 (TRKA; [2]) [nM] | IC50 (Ba/F3-CD74-ROS1-G2032R) [nM] | IC50 (Ba/F3-LMNA-NTRK1-G595R) [nM] | IC50 (Ba/F3-LMNA-NTRK1) [nM] | IC50 (Ba/F3-CD74-ROS1) [nM] | IC50 (Ba/F3-TEL-ALK-G1202R) [nM] |
| --- | --- | --- | --- | --- | --- | --- | --- | --- | --- | --- | --- | --- | --- | --- | --- | --- |
| COc1ncc(F)cc1[C@@H](C)Nc1ccn2ncc(C3=NOC(C)(C)N3)c2n1 [Example 28] | 5 to 50 |  |  | < 0.5 | 0.5 to 5 | < 0.5 | < 0.5 | 0.5 to 5 | 5 to 50 | < 0.5 | < 0.5 |  |  |  |  |  |
| CC(C)Oc1ccc(F)cc1[C@@H](C)Nc1ccn2ncc(C3=NOC(C)(C)N3)c2n1 [Example 51] | 5 to 50 |  | 0.5 to 5 | < 0.5 | 5 to 50 | < 0.5 | < 0.5 | 0.5 to 5 | 5 to 50 | < 0.5 |  |  |  |  |  |  |

Further lines, results first:

| IC50 (TRKA (G677C)) [nM] | IC50 (ROS1 (G2032R)) [nM] | IC50 (TRKA) [nM] | IC50 (ROS1) [nM] | IC50 (TRKA (G595R)) [nM] | IC50 (TRKC) [nM] | IC50 (TRKB) [nM] | IC50 (ALK (G1202R)) [nM] | IC50 (ALK) [nM] | IC50 (ROS1 (G2032R); [1]) [nM] | IC50 (TRKA; [2]) [nM] | IC50 (Ba/F3-CD74-ROS1-G2032R) [nM] | IC50 (Ba/F3-LMNA-NTRK1-G595R) [nM] | IC50 (Ba/F3-LMNA-NTRK1) [nM] | IC50 (Ba/F3-CD74-ROS1) [nM] | IC50 (Ba/F3-TEL-ALK-G1202R) [nM] | Compound |
| --- | --- | --- | --- | --- | --- | --- | --- | --- | --- | --- | --- | --- | --- | --- | --- | --- |
| 50 to 500 | 0.5 to 5 | 0.5 to 5 | < 0.5 | 5 to 50 | < 0.5 | 0.5 to 5 | 5 to 50 | 50 to 500 |  |  |  |  |  |  |  | CCc1ccc(F)cc1[C@@H](C)Nc1ccn2ncc(C3=NOC(C)(C)N3)c2n1 [Example 52] |
| 5 to 50 |  | 0.5 to 5 | < 0.5 | 5 to 50 | < 0.5 | < 0.5 | 5 to 50 | 0.5 to 5 | < 0.5 |  |  |  |  |  |  | C[C@@H](Nc1ccn2ncc(C3=NOC(C)(C)N3)c2n1)c1cc(F)ccc1F [Example 5] |
| 0.5 to 5 |  | 0.5 to 5 | < 0.5 | 0.5 to 5 | < 0.5 | < 0.5 | 0.5 to 5 | 5 to 50 | < 0.5 |  |  |  |  |  |  | CCOc1ccc(F)cc1[C@@H](C)Nc1ccn2ncc(C3=NOC(C)(C)N3)c2n1 [Example 50] |
| 0.5 to 5 |  |  | < 0.5 | 0.5 to 5 | < 0.5 | < 0.5 | 0.5 to 5 | 5 to 50 | < 0.5 | < 0.5 | 7.9 | 2.2 | 1.3 | 2.8 | 87.5 | COc1ccc(F)cc1[C@@H](C)Nc1ccn2ncc(C3=NOC(C)(C)N3)c2n1 [Example 10] |
